Converted amounts (≈) assume the structure as drawn. Like-named read-outs stand apart in the source and are kept apart here. Where a SMILES comes first, the peptide text is derived from it. Bridges are numbered along the chain shown (N, C = ends).
Experiments:
MRSA strain 1 = type: cell-based, Staphylococcus aureus
Method: (§1) The antimicrobial activity of peptide γ2 was evaluated versus Pseudomonas aeruginosa ATCC 27853, Escherichia coli ATCC 13762 and Staphylococcus aureus ATCC 6538, and versus multidrug-resistant (MDR) clinical isolates of Methicillin-Resistant Staphylococcus aureus (MRSA), extended-spectrum β-lactamase (ESBL)-producing E. coli, P. aeruginosa and Acinetobacter baumannii complex. The isolates were identified by mass spectrometry using the MALDI (matrix-assisted laser desorption/ionisation) mass spectrometer and the biochemical phenotyping method in a VITEKR 2 bioMérieux system (bioMérieux Italia S.p.a., Bagno a Ripoli, Florence, Italy), according to the manufacturer's instructions. The antibiotic susceptibility profile was evaluated with the VITEKR 2 bioMérieux System. The microorganisms were cultured in broth and agar at 37° C. The media used were BD Brain Heart Infusion broth (BHI) (BD, Franklin Lakes, NJ, USA) and BHI agar (OXOID, Basingstoke, Hampshire, UK), BD Trypticase Soy agar with 5% sheep's blood and MacConkey agar (OXOID, Basingstoke, Hampshire, UK). The isolates were stored frozen at −80° C. in BHI broth supplemented with 10% (v/v) glycerol (Carlo Erba Reagents, Milan, Italy) until use, and the work cultures were activated in the respective broths at 37° C. for 15-18 h.
(§2) Assays of the antibacterial activity of peptide γ2, in both reduced and oxidised form, were conducted against P. aeruginosa ATCC 27853, E. coli ATCC 13762, S. aureus ATCC 6538 and MDR clinical isolates. The strains were cultured under aerobic conditions in BHI broth at 37° C. and incubated with peptide γ2 for 2 hours at 37° C. Various concentrations of peptide were used, ranging from 1 μM to 128 μM. Each test was conducted in triplicate with three independent cultures. The minimum inhibitory concentration (MIC) and the minimum bactericidal concentration (MBC) of the peptide were determined with a modified version of the Clinical and Laboratory Standards Institute broth microdilution assay, using a final inoculum concentration of 10^5 CFU/ml, as previously described (Scudiero O et al., Antimicrob Agents Chemother 2010; 54:2312-22; Scudiero O et al. Antimicrob Ag Chemother 2013; 57:1701-8).
(§3) The MIC is indicated by the concentration interval, which comprise the upper growth limit and the first concentration which could not support visible bacterial growth after incubation. The MBC was defined as the lowest concentration at which no viable colonies were observed. The peptide concentrations were 128.0, 64.0, 32.0, 16.0, 8.0, 4.0, 2.0 and 1 μM. For the time-kill studies against the ATCC and MDR strains, the bacteria were cultured in BHI broth until the late log growth phase at 37° C. The bacterial suspensions, containing about 10^6 CFU/ml (adjusted by the spectrophotometer to OD600 nm), were diluted 1:100 in PBS1× and then incubated at 37° C. with or without the peptide, selected at concentrations corresponding to 1, 2 and 4×MIC (as determined above). At baseline and 1, 2, 3 and 5 hours after incubation, a portion of each sample was harvested, diluted in series in PBS1× and seeded on BHI agar. The plates were incubated for […] at 37° C., and the viable bacteria count was conducted by the CFU method. All the data were expressed as mean±SD of three independent experiments.

MRSA strain 2 = type: cell-based, Staphylococcus aureus
Method: as §1, §2, §3

MRSA strain 3 = type: cell-based, Staphylococcus aureus
Method: as §1, §2, §3

S. aureus ATCC 6538 = type: cell-based, Staphylococcus aureus
Method: as §1, §2, §3

E. coli ATCC 13762 = type: cell-based, Escherichia coli
Method: as §1, §2, §3

E. coli ESBL strain 1 = type: cell-based, Escherichia coli
Method: as §1, §2, §3

E. coli ESBL strain 2 = type: cell-based, Escherichia coli
Method: as §1, §2, §3

P. aeruginosa ATCC 27853 = type: cell-based, Pseudomonas aeruginosa
Method: as §1, §2, §3

[1] = tested on: P. aeruginosa MDR strain 1; type: cell-based, Pseudomonas aeruginosa
Method: as §1, §2, §3

[2] = tested on: P. aeruginosa MDR strain 2; type: cell-based, Pseudomonas aeruginosa
Method: as §1, §2, §3

[3] = tested on: A. baumannii MDR strain 1; type: cell-based, Acinetobacter baumannii complex
Method: as §1, §2, §3

[4] = tested on: A. baumannii MDR strain 2; type: cell-based, Acinetobacter baumannii complex
Method: as §1, §2, §3

A549 cells = test: Cell migration assay in Boyden chambers; type: cell-based; conditions: 10 nM, 4 h
Method: (§4) Cell migration assays were conducted as previously described (Bifulco K et al., Mol Cancer There 2013; 2:1981-93), using Boyden chambers and polyvinylpyrrolidone-free polycarbonate filters with 8 μm pores inserted between a lower and upper compartment. Briefly, the cell suspension (1×10^5 viable cells/mL of serum-free medium) was seeded in each upper chamber. The lower chambers were filled with DMEM only, DMEM containing 10 nM N-formyl-methionyl-leucylphenylalanine peptide (fMLF), as positive control, or increasing peptide γ2 concentration. Incubation was conducted for 4 h at 37° C. in air humidified with 5% CO2. At the end of the assay, the cells on the lower surface of the filter were fixed with ethanol and stained with haematoxylin, and 10 random fields/filter were counted with a 200× magnification. The extent of cell migration was expressed as a percentage of baseline cell migration evaluated in the absence of chemo-attractants, taken as 100% (CTRL).

HT-1080 cells = test: Cell migration assay in Boyden chambers; type: cell-based; conditions: 10 nM, 4 h
Method: as §4

HUVEC endothelial cells = test: Cell migration assay in Boyden chambers; type: cell-based; conditions: endothelial cells (HUVEC); 10 nM; 4 h
Method: as §4

Work on CC[C@H](C)[C@@H]1NC(=O)[C@H](CCC(N)=O)NC(=O)[C@H](CCCNC(=N)N)NC(=O)[C@H](CCCNC(=N)N)NC(=O)[C@H](CCCCN)NC(=O)[C@@H]2CCCN2C(=O)[C@H](CC(C)C)NC(=O)[C@@H](NC(C)=O)CSSC[C@@H](C(=O)N[C@@H](CCCCN)C(=O)N[C@@H](CCCCN)C(N)=O)NC(=O)[C@H](CO)NC(=O)[C@H](CCCCN)NC(=O)[C@H](CCCNC(=N)N)NC(=O)CNC(=O)[C@H](CCCNC(=N)N)NC(=O)[C@H]([C@@H](C)O)NC(=O)[C@H](CO)NC(=O)[C@H](CO)NC(=O)[C@H](CCCCN)NC(=O)CNC1=O [Oxidised peptide γ2] (Ac-CLPKRRQIGKSSTRGRKSCKK-NH2; disulfide 1-19 (inferred)) yielded an MBC (MRSA strain 1) of 2 µM (≈ 4.91 µg/mL), an MIC (MRSA strain 1) of 1 µM (≈ 2.46 µg/mL) and an MBC (MRSA strain 2) of 16 µM (≈ 39.3 µg/mL). It also gave an MIC (MRSA strain 2) of 2 µM (≈ 4.91 µg/mL), an MBC (MRSA strain 3) of 32 µM (≈ 78.6 µg/mL) and an MIC (MRSA strain 3) of 2 µM (≈ 4.91 µg/mL). For the same molecule, the MBC (S. aureus ATCC 6538) was 8 µM (≈ 19.7 µg/mL), the MBC (E. coli ATCC 13762) was 1 µM (≈ 2.46 µg/mL) and the MIC (E. coli ATCC 13762) was 1 µM (≈ 2.46 µg/mL). For the same molecule, the MBC (E. coli ESBL strain 1) was 2 µM (≈ 4.91 µg/mL), the MIC (E. coli ESBL strain 1) was 2 µM (≈ 4.91 µg/mL) and the MBC (E. coli ESBL strain 2) was 32 µM (≈ 78.6 µg/mL). It also gave an MIC (E. coli ESBL strain 2) of 1 µM (≈ 2.46 µg/mL), an MBC (P. aeruginosa ATCC 27853) of 4 µM (≈ 9.83 µg/mL) and an MBC [1] of 32 µM (≈ 78.6 µg/mL). It also gave an MBC [2] of 32 µM (≈ 78.6 µg/mL), an MIC [2] of 1 µM (≈ 2.46 µg/mL) and an MBC [3] of 128 µM (≈ 314 µg/mL). For the same molecule, the MBC ([4]; MDR strain 2) was 4 µM (≈ 9.83 µg/mL), the MIC ([4]; MDR strain 2) was 4 µM (≈ 9.83 µg/mL) and the MIC ([4]; multidrug-resistant clinical strain 2 of A. baumannii) was 4 µM (≈ 9.83 µg/mL).
“N-formyl-methionyl-leucylphenylalanine peptide [fMLF, reference compound]” was tested, and the “cell migration, % of the baseline cell migration” value (from here on “cell migration, %”) (A549 cells) was 153%, the “cell migration, %” value (HT-1080 cells) was 167% and the “cell migration, %” value (HUVEC endothelial cells) was 166%.

— US20240417435A1, “DEFENSIN-DERIVED PEPTIDE WITH ANTIBACTERIAL ACTIVITY ALSO AGAINST MULTI-ANTIBIOTIC-RESISTANT BACTERIA” (priority 2021, published 2024)
